Legend:
Format in all cases: cell-based, mouse
PKB [1] = assay: PKB activation in osteoclasts (phospho-PKB Western blot); details: for TRANCE-induced PKB activation (phosphorylated form of PKB): osteoclasts pretreated 90 min with inhibitor 10 μM, then TRANCE 1 μg/ml
Method: (§1) FIG. 1. […] (A) Mature bone marrow-derived osteoclasts were stimulated for the indicated times with recombinant hCD8-TRANCE (TRANCE; 1 μg/ml). Levels of phosphorylated forms of p44/p42 ERK (p44 ERK^P and p42 ERK^P), IκBα (IκB-α^P) and PKB (PKB^P) in whole cell extracts were determined using phospho-peptide-specific antibodies as indicated in the figure. […] (B) as in (A) except the use of mature bone marrow-derived dendritic cells instead of osteoclasts.
(§2) FIG. 2. […] (A) Osteoclasts were serum starved and then pretreated for 90 min with LY294002 (10 μM), Herbimycin A (Herb. A; 10 μM), and PP1 (10 μM) inhibitors which are specific for PI3-kinase, PTKs, and Src-family kinases, respectively, were stimulated for indicated times with TRANCE (1 μg/ml). Levels of phosphorylated p44/p42 ERK, PKB, and IκB-α were determined as described in FIG. 1. Cells pretreated with vehicle (DMSO) were used as a negative control. (B) as in (A) except the use of mature bone marrow-derived dendritic cells.
(§3) Primary cells and cell lines. […] In brief, bone marrow cells from tibiae and femur of 4-6 week old mice (C57BL/6, Jackson Laboratories) were cultured overnight in media (α-MEM, 10% FCS) in the presence of CSF-1 (5 ng/ml). […] For experiments described in this study, only adherent cells were used after extensive washing. […] After allowing them adhere for 2 hours to a tissue culture dish, contaminating floater cells were washed away and mature dendritic cells were obtained by overnight culture.
(§4) Cell stimulation, cell transfection and in vitro assays. In vitro differentiated mature dendritic cells, macrophages and osteoclasts were washed to remove exogenous growth factors, cultured in media with low serum (0.5% FCS, 6 hours), then stimulated by adding various cytokines in the presence or absence of inhibitors for various times as indicated. After stimulation, the cells were washed in ice-cold PBS, and subjected to Western blot analysis or immunoprecipitation as described below.
All cells were harvested and lysed in extraction buffer (20 mM HEPES NaOH (pH 7.4), 150 mM NaCl, 1% Triton X-100, 10% glycerol, 10 mM EDTA, 1 mM Na3VO4, 1 mM phenylmethylsulfonylfluoride, 1 μg/ml leupeptin, and 0.1 U of aprotinin per ml) and cleared by centrifugation to obtain whole cell extracts. Protein assays were performed to ensure equal amounts of lysates were used in each sample.

NF-κB = NF-κB activation measured by IκB-α phosphorylation/degradation in osteoclasts and dendritic cells (Western blot); details: osteoclasts and dendritic cells (FIGS. 2A and 2B), inhibitor 10 μM, TRANCE 1 μg/ml
Method: as §1, §2, §3
as §4, with “below. […]” for “below.”

PKB [2] = assay: PKB activation in dendritic cells (phospho-PKB Western blot)
Method: FIG. 1. TRANCE activates p44/42 ERK, NF-κB and PKB in osteoclasts and dendritic cells. (A) Mature bone marrow-derived osteoclasts were stimulated for the indicated times with recombinant hCD8-TRANCE (TRANCE; 1 μg/ml). Levels of phosphorylated forms of p44/p42 ERK (p44 ERK^P and p42 ERK^P), IκBα (IκB-α^P) and PKB (PKB^P) in whole cell extracts were determined using phospho-peptide-specific antibodies as indicated in the figure. The membranes were stripped and incubated with antibodies against the p44/p42 ERK, IκB-α, and PKB as indicated to confirm that similar amounts of whole cell extracts were analyzed. Note the decrease of IκB-α after 10 min of treatment due to its degradation. (B) as in (A) except the use of mature bone marrow-derived dendritic cells instead of osteoclasts.
FIG. 2. TRANCE-induced PKB activation in osteoclasts and dendritic cells is blocked by inhibitors of PI3-kinase, tyrosine kinases and Src family kinases. (A) Osteoclasts were serum starved and then pretreated for 90 min with LY294002 (10 μM), Herbimycin A (Herb. A; 10 μM), and PP1 (10 μM) inhibitors which are specific for PI3-kinase, PTKs, and Src-family kinases, respectively, were stimulated for indicated times with TRANCE (1 μg/ml). Levels of phosphorylated p44/p42 ERK, PKB, and IκB-α were determined as described in FIG. 1. Cells pretreated with vehicle (DMSO) were used as a negative control. (B) as in (A) except the use of mature bone marrow-derived dendritic cells.
FIG. 6. Cytokine receptors that engage TRAF6 activate PKB through Src-family kinases. (A) Dendritic cells were treated with TNF (10 ng/ml), TRANCE (5 μg/ml), LPS (50 μg/ml), or IL-1α (20 ng/ml) for the indicated times (min). The activation of PKB was determined in whole cell extracts using a phospho-PKB-specific antibody as described in FIG. 1. (B) Dendritic cells were pretreated with vehicle (DMSO) or the Src-family kinase inhibitor, PP1 (10 μM) for 90 minutes followed by a 15 minute treatment with TRANCE (5 μg/ml), LPS (50 μg/ml), or IL-1α (20 ng/ml) or no treatment at all (−). The activation of PKB was determined as described in FIG. 1.
Primary cells and cell lines. Osteoclasts and macrophages were generated from bone marrow precursors as described (Wani, et al., Endocrinology, 140:[…], 1999). In brief, bone marrow cells from tibiae and femur of 4-6 week old mice (C57BL/6, Jackson Laboratories) were cultured overnight in media (α-MEM, 10% FCS) in the presence of CSF-1 (5 ng/ml). After 24 hours, non-adherent cells were harvested, washed, and further cultured in media with CSF-1 (50 ng/ml) plus TRANCE (10 ng/ml) to develop osteoclasts, or with CSF-1 alone to develop macrophages. Using these conditions, after 4 days of culture, greater than 95 percent of the adherent cells were osteoclasts or macrophages. For experiments described in this study, only adherent cells were used after extensive washing. Mature dendritic cells were generated from bone marrow precursors of 4-6 week old female C57BL/6 mice (C57BL/6, Jackson Laboratories) cultured in media (RPMI1640, 5% FBS) and GM-CSF (1:30 cultured supernatant from the J558 cell line, a gift from Dr. R. M. Steinman, The Rockefeller University) for 8 days as previously described (Inaba, et al., J. Exp. Med., 176:1693-1702, 1992). To generate osteoclasts and dendritic cells from c-Src deficient mice, spleen cells, which contain hematopoietic precursors due to extramedullary hematopoeisis, were substituted for bone marrow cells as previously described (Schwartzberg, et al., Genes Dev., 11:2835-2844, 1997). Mature spleen-derived dendritic cells were isolated from spleens treated with collagenase (40 U/ml; Boehinger Mannheim) and subjected to a Nycodenz centrifugation gradient (14.5%; Nycomed) to obtain low density cells. After allowing them adhere for 2 hours to a tissue culture dish, contaminating floater cells were washed away and mature dendritic cells were obtained by overnight culture.
Cell stimulation, cell transfection and in vitro assays. […]

osteoclasts = assay: Osteoclast differentiation with TRANCE plus CSF-1 (TRAP solution assay); details: TRANCE 100 ng/ml plus CSF-1 50 ng/ml; LY294002 200 nM and 800 nM
Method: FIG. 3. c-Src is required for TRANCE-induced PKB activation and osteoclast survival. (A) c-Src was immunoprecipitated from osteoclasts, dendritic cells and macrophages stimulated with TRANCE (1 μg/ml) for the indicated times using an anti-c-Src-specific monoclonal antibody (327). PTK activity of the c-Src immunprecipitates were measured in vitro using SAM68, a PTK specific substrate. The degree of SAM68 phosphorylation was determined by Western blot analysis using an anti-phospho-tyrosine antibody (4G10) and densitometry. Note that c-Src kinase activity was not detectable in TRANCE-treated macrophages most likely due to low levels of c-Src in these cells (Lacey, et al., supra, 1998). (B) Osteoclasts derived from wild type and c-Src deficient mice were stimulated with TRANCE (5 μg/ml) for 10 min and the levels of phosphorylated PKB (PKB^P), total PKB, and total IκBα were determined as in FIG. 1. (C) Osteoclasts from wild-type (open bars) and c-Src deficient (solid bars) mice were washed and then cultured for an additional 24 hours in media alone (Medium) or in media with TRANCE (5 μg/ml) or CSF-1 (10 ng/ml). TRAP solution assays were performed and percent survival calculated. The experiment was performed in triplicate and the mean values with positive standard deviations are shown. […] Osteoclasts were detected by TRAP solution assays. […]

mature osteoclasts = assay: Osteoclast survival assay (TRAP solution assay); details: 24 hours; TRANCE 5 μg/ml or CSF-1 10 ng/ml
Method: TRAP solution assays were performed and percent survival calculated. The experiment was performed in triplicate and the mean values with positive standard deviations are shown. […] (E) Mature osteoclasts were washed extensively and then cultured for an additional 24 hr in media without (−) or with TRANCE (5 μg/ml; +) in the absence or presence of increasing doses (200 nM and 800 nM) of LY294002. TRAP solution assays were performed and percent survival was as described in Experimental Procedures. The experiment was performed in triplicate and the mean values with positive standard deviations are shown.
Osteoclast survival assays. In vitro differentiated mature osteoclasts were washed 3 times in media then further cultured for 24 hr in media alone (control) or in media with TRANCE (5 μg/ml) or CSF-1 (10 ng/ml) in the presence or absence of LY294002 as indicated.
Specific cell survival (%)=(A405, 24 hr−A405. background)*100/(A405, 0 hr−A405, background)

COc1cccc(-c2cc(=O)c3ccccc3o2)c1N [PD98059, reference compound]
TRANCE-induced PKB activation (PKB [1]; MEK inhibitor, cell type not stated (osteoclasts and dendritic cells studied), data not shown): failed to inhibit

CO[C@H]1[C@@H](OC)C[C@H](C)[C@@H](OC)C2=CC(=O)C=C(NC(=O)/C(C)=C/C=C\[C@H](OC)[C@@H](OC(N)=O)/C(C)=C/[C@@H]1C)C2=O [herbimycin A, reference compound]
NF-κB activation as measured by IκB-α degradation (NF-κB): neither LY294002, herbimycin A, nor PP1 significantly affected
TRANCE-induced PKB activation (phosphorylated form of PKB) (PKB [1]): blocked

Cc1ccc(-c2nn(C(C)(C)C)c3ncnc(N)c23)cc1 [PP1, reference compound]
NF-κB activation as measured by IκB-α degradation (NF-κB): neither LY294002, herbimycin A, nor PP1 significantly affected
TRANCE-induced PKB activation (phosphorylated form of PKB) (PKB [2]; dendritic cells pretreated 90 min with inhibitor 10 μM, then TRANCE 1 μg/ml): inhibited
activation of PKB by IL-1α (PKB [2]; dendritic cells pretreated with PP1 10 μM 90 minutes, then IL-1α 20 ng/ml 15 minutes): inhibited
activation of PKB by LPS (PKB [2]; dendritic cells pretreated with PP1 10 μM 90 minutes, then LPS 50 μg/ml 15 minutes): inhibited
TRANCE-induced PKB activation (phosphorylated form of PKB) (PKB [1]): blocked

O=c1cc(N2CCOCC2)oc2c(-c3ccccc3)cccc12 [LY294002]
osteoclast differentiation (osteoclasts): did not inhibit

B1: CSF-1: recombinant CSF-1 purchased from R&D Systems (protein, UniProt P09603 33-554, looked up)
Macrophage colony-stimulating …: EEVSEYCSHMIGSGHLQSLQRLIDSQMETSCQITFEFVDQEQLKDPVCYLKKAFLLVQDIMEDTMRFRDNTPNAIAIVQLQELSLRLKSCFTKDYEEHDKACVRTFYETPLQLLEKVKNVFNETKNLLDKDWNIFSKNCNNSFAECSSQDVVTKPDCNCLYPKAIPSSDPASVSPHQPLAPSMAPVAGLTWEDSEGTEGSSLLPGEQPLHTVDPGSAKQRPPRSTCQSFEPPETPVVKDSTIGGSPQPRPSVGAFNPGMEDILDSAMGTNWVPEEASGEASEIPVPQGTELSPSRPGGGSMQTEPARPSNFLSASSPLPASAKGQQPADVTGTALPRVGPVRPTGQDWNHTPQKTDHPSALLRDPPEPGSPRISSLRPQGLSNPSTLSAQPQLSRSHSSGSVLPLGELEGRRSTRDRRSPAEPEGGPASEGAARPLPRFNSVPLTDTGHERQSEGSFSPQLQESVFHLLVPSVILVLLAVGGLLFYRWRRRSHQEPQRADSPLEQPEGSPLTQDDRQVELPV
cytokine-promoted survival in c-Src−/− osteoclasts compared to wild-type (mature osteoclasts): not reduced

B2: IL-1α: recombinant IL-1 purchased from R&D Systems (protein, UniProt P01583 113-271, looked up)
Interleukin-1 alpha: SAPFSFLSNVKYNFMRIIKYEFILNDALNQSIIRANDQYLTAAALHNLDEAVKFDMGAYKSSKDDAKITVILRISKTQLYVTAQDEDQPVLLKEMPEIPKTITGSETNLLFFWETHGTKNYFTSVAHPNLFIATKQDYWVCLAGGPPSITDFQILENQA
PKB activation in dendritic cells stimulated with cytokine (PKB [2]; TNF 10 ng/ml, TRANCE 5 μg/ml, LPS 50 μg/ml, IL-1α 20 ng/ml, CD40L data not shown): activated

Reference: patent publication US6492124B1, “Trance activated signal transduction pathways in osteoclasts” (The Rockefeller University, priority 1999, dated 2002)
